These are literature values, as cited in the PKSmart pharmacokinetics tables (Seal et al. 2025).

The series can be described thus: Lombardo, Berellini, Obach 2018, Drug Metab Dispos 46:1466, doi 10.1124/dmd.118.082966. Particulars: human; for MRT / Vd / clearance / half-life: in vivo, iv; for fraction unbound: plasma.

On to `Cn1nnc(-c2ccc(-c3ccc(N4C[C@H](CO)OC4=O)cc3F)cn2)n1`, for which the mean residence time (MRT) was 12.6 h, the Vd is 0.91 L/kg, the clearance was 1.19 mL/min/kg and the half-life was 10.2 h. For the same compound, the fraction unbound is 0.11.

In the case of `CCC(C)(C)NCC(O)COc1ccccc1C(=O)CCc1ccccc1` (centres undefined), the MRT is 1.9 h, the Vd is 1.2 L/kg, the clearance is 11 mL/min/kg and the half-life is 1.5 h. Also, the unbound share (fraction unbound) is 0.017.

With `CC[C@H]1OC(=O)C(C)C(=O)C(C)[C@@H](O[C@@H]2O[C@H](C)C[C@H](N(C)C)[C@H]2O)[C@](C)(OC)CC(C)C(=O)C(C)[C@H]2N(CCCCn3cnc(-c4cccnc4)c3)C(=O)O[C@]12C` (some centres undefined), the MRT was 3.6 h, the distribution volume (Vd) was 3 L/kg, the clearance is 14 mL/min/kg and the half-life is 12 h. The free fraction (fraction unbound) is 0.41.

For the compound `COc1cc(OC)c(C(=O)CCCN2CCCC2)c(OC)c1`, the mean residence time MRT was 3.9 h, the Vd is 1.3 L/kg, the clearance is 5.6 mL/min/kg and the half-life is 3.3 h.

Turning to `CC1(C)S[C@@H]2C(NC(=O)C(C(=O)O)c3ccccc3)C(=O)N2C1C(=O)O` (some centres undefined), the MRT is 1.5 h, the volume of distribution (Vd) is 0.17 L/kg, the clearance is 1.9 mL/min/kg and the half-life is 1.1 h.

Turning to `Nc1ccc(O)c(C(=O)O)c1`, the mean residence time MRT was 0.59 h, the Vd is 0.33 L/kg, the clearance is 9.3 mL/min/kg and the half-life was 0.61 h. For the same compound, the free fraction (fraction unbound) is 0.39.

For `Nc1ccn([C@@H]2O[C@H](CO)C[C@@H]2F)c(=O)n1`, the mean residence time (MRT) is 1.9 h, the volume of distribution (Vd) is 0.7 L/kg, the clearance was 6.1 mL/min/kg and the half-life was 1.8 h. In addition, the fraction unbound was 1.

On to `CCOP(=O)(OCC)[C@@H](NC(=O)[C@]1(O)[C@@H](O)[C@@]2(CC)C=CCN3CC[C@]4(c5cc([C@@]6(C(=O)OC)C[C@H]7C[N@@](CCc8c6[nH]c6ccccc86)C[C@@](O)(CC)C7)c(OC)cc5N(C)[C@@H]14)[C@@H]32)C(C)C`, for which the mean residence time MRT was 22.2 h, the Vd was 4.67 L/kg, the clearance was 3.5 mL/min/kg and the half-life was 34.3 h. Besides, the fraction unbound was 0.1.

On to `CC(=O)OC1=C2C(C)[C@@H](OC(=O)C(O)C(CC(C)C)NC(=O)OC(C)(C)C)[C@@H]3OC(=O)O[C@]3([C@@H](OC(=O)c3ccccc3)[C@@H]3[C@]4(OC(C)=O)CO[C@@H]4C[C@H](O)[C@@]3(C)C1=O)C2(C)C` (some centres undefined), for which the mean residence time MRT is 28.4 h, the Vd was 13.8 L/kg, the clearance is 8.12 mL/min/kg and the half-life was 30.1 h.

Regarding `CN(C)CCCN1c2ccccc2CCc2ccccc21`, the free fraction (fraction unbound) was 0.075.

Turning to `CCC(=O)O[C@](Cc1ccccc1)(c1ccccc1)[C@H](C)CN(C)C`, the mean residence time MRT was 13 h, the Vd is 12 L/kg, the clearance was 15 mL/min/kg and the half-life is 18 h. Further, the unbound share (fraction unbound) was 0.24.

`O=C1N=C(c2ccccc2Cl)c2cc(Cl)ccc2NC1O` (centres undefined): the MRT is 22 h, the distribution volume (Vd) was 1.3 L/kg, the clearance was 1 mL/min/kg and the half-life is 17 h.

In the case of `CCC1=C[C@@H]2CN(C1)Cc1c([nH]c3ccccc13)[C@@](C(=O)OC)(c1cc3c(cc1OC)N(C)[C@H]1[C@@](O)(C(=O)OC)[C@H](OC(C)=O)[C@]4(CC)C=CCN5CC[C@]31[C@@H]54)C2`, the MRT was 18 h, the Vd is 23 L/kg, the clearance is 20 mL/min/kg and the half-life is 26 h. Moreover, the free fraction (fraction unbound) was 0.87.

As for `CC(C)CN(C[C@@H](O)[C@H](Cc1ccccc1)NC(=O)O[C@H]1CO[C@H]2OCC[C@H]21)S(=O)(=O)c1ccc(N)cc1`, the clearance was 7.81 mL/min/kg and the half-life is 15 h.

Turning to `C/C=C/c1cc(OC)c(OC)cc1OC`, the mean residence time (MRT) was 1.9 h, the Vd was 1 L/kg, the clearance is 8.8 mL/min/kg and the half-life was 3.7 h.

Take `CC(C)n1c(/C=C/[C@H](O)C[C@H](O)CC(=O)O)c(-c2ccc(F)cc2)c2ccccc21`: the mean residence time (MRT) is 0.44 h, the volume of distribution (Vd) was 0.42 L/kg and the half-life is 0.7 h.

As for `CCOC(=O)C(CCc1ccccc1)NC(C)C(=O)N1Cc2cc(OC)c(OC)cc2CC1C(=O)O` (centres undefined), the clearance was 6.3 mL/min/kg, the half-life is 1.3 h and the unbound share (fraction unbound) was 0.12.

Turning to `CC(O)Cn1cnc2c1c(=O)n(C)c(=O)n2C` (centres undefined), the mean residence time (MRT) was 8.39 h, the volume of distribution (Vd) was 0.59 L/kg, the clearance was 1.17 mL/min/kg and the half-life was 7.8 h.

As for `C=CCOc1ccccc1OC[C@H](O)CNC(C)C`, the mean residence time (MRT) was 1.56 h, the Vd is 0.72 L/kg, the clearance was 7.7 mL/min/kg and the half-life was 1.09 h. Also, the fraction unbound was 0.19.

Turning to `N=C(N)NC(=O)Cc1c(Cl)cccc1Cl`, the MRT is 22 h, the Vd was 5.6 L/kg, the clearance is 4.5 mL/min/kg and the half-life was 15 h.

`C[C@@H]1C[C@H]2[C@H]3CC=C4CC(=O)C=C[C@]4(C)[C@@]3(Cl)[C@@H](O)C[C@]2(C)[C@@]1(OC(=O)c1ccco1)C(=O)CCl`: the MRT is 2.9 h, the Vd is 2.2 L/kg, the clearance was 12.7 mL/min/kg and the half-life was 4.4 h.

For `CCN1CCC[C@@H]1CNC(=O)c1cc(S(N)(=O)=O)ccc1OC`, the mean residence time MRT is 8.01 h, the distribution volume (Vd) is 0.94 L/kg, the clearance was 1.9 mL/min/kg and the half-life was 6.5 h.

Take `COc1ccc(CCN(C)CCC[C@](C#N)(c2cc(OC)c(OC)c(OC)c2)C(C)C)cc1OC`: the MRT is 2.04 h, the Vd is 1.75 L/kg, the clearance is 14.3 mL/min/kg and the half-life was 1.8 h. Moreover, the unbound share (fraction unbound) was 0.07.

In the case of `COc1ccc2cc1Oc1ccc(cc1)C[C@H]1c3cc(c(OC)cc3CCN1C)Oc1c(OC)c(OC)c(Br)c3c1[C@H](C2)N(C)CC3`, the mean residence time (MRT) is 88.2 h, the Vd was 51 L/kg, the clearance was 9.6 mL/min/kg and the half-life is 59.4 h. In addition, the fraction unbound is 0.22.

On to `S=P(N1CC1)(N1CC1)N1CC1`, for which the MRT is 4 h, the Vd is 1.6 L/kg, the clearance was 6.7 mL/min/kg and the half-life is 2.7 h.

Take `CC(C)(C)S(=O)(=O)CC(Cc1ccccc1)C(=O)NC(Cc1c[nH]cn1)C(=O)N[C@@H](CC1CCCCC1)[C@@H](O)C(O)C1CC1` (some centres undefined): the mean residence time (MRT) was 1.1 h, the distribution volume (Vd) is 0.77 L/kg, the clearance is 11.6 mL/min/kg and the half-life is 5.2 h. The free fraction (fraction unbound) is 0.0558.

With `C[C@]12CCC(=O)C=C1CC[C@@H]1[C@@H]2[C@@H](O)C[C@@]2(C)[C@H]1CC[C@]2(O)C(=O)CO`, the MRT was 1.9 h, the Vd was 0.38 L/kg, the clearance is 5.7 mL/min/kg and the half-life was 1.6 h.

For `CC(C)(C)C(NC(=O)C(CC1CCCC1)CN(O)C=O)C(=O)N1CCN(Cc2ccc3c(c2)OCO3)CC1` (centres undefined), the MRT is 5.9 h, the Vd is 1.1 L/kg, the clearance was 3.1 mL/min/kg and the half-life was 9.4 h. Further, the fraction unbound is 0.2.

Turning to `CCCCCCN1CCC(C(=O)N(C)CC)(c2ccccc2)CC1`, the clearance was 24 mL/min/kg and the half-life was 3.6 h.

Consider `COC1C(=O)C(C)C[C@H](C)/C=C/C=C/C=C(\C)[C@@H](OC)C[C@@H]2CC[C@@H](C)[C@@](O)(O2)C(=O)C(=O)N2CCCCC2C(=O)O[C@H]([C@H](C)C[C@@H]2CC[C@H](n3cnnn3)[C@H](OC)C2)CC(=O)C(C)=CC(C)[C@H]1O` (some centres undefined), for which the mean residence time (MRT) is 33 h, the distribution volume (Vd) is 1.3 L/kg, the clearance is 0.67 mL/min/kg and the half-life was 35 h. For the same compound, the free fraction (fraction unbound) was 0.26.

With `CNC(=O)CC(N)C(=O)NC(C(=O)NC1C(=O)N2C(C(=O)O)C(C)(C)S[C@H]12)c1ccc(O)cc1` (some centres undefined), the MRT is 1.61 h, the distribution volume (Vd) was 0.27 L/kg, the clearance was 2.82 mL/min/kg and the half-life is 1.45 h.

Regarding `O=C(/C=C/c1ccc(O)c2c1C(C(=O)OC(Cc1ccc(O)c(O)c1)C(=O)O)[C@@H](c1ccc(O)c(O)c1)O2)OC(Cc1ccc(O)c(O)c1)C(=O)O` (some centres undefined), the mean residence time MRT was 0.42 h, the Vd is 0.14 L/kg, the clearance is 7.17 mL/min/kg and the half-life was 0.29 h. For the same compound, the fraction unbound was 0.08.

As a reminder, the MRT is a mean duration of stay, worked out from the concentration-time curve. In general, Vd refers to a proportionality between amount in the body and measured concentration, not a real space. What is called clearance is the rate of elimination divided by the concentration. One may read the half-life as how long it takes for the measured level to halve. For orientation: fraction unbound means the share of the substance not bound to proteins or other matrix.
